What was measured:
HL-60 leukemia cells = experiment: Cytotoxicity assay: proliferation of HL-60 cells by 3H-thymidine uptake; format: cell-based; settings: Homo sapiens, doxorubicin positive control at 1 μM on the plate of the test compound, read-out: % Inhibition of DOX (1 μM)
mice = settings: intraperitoneal administration (route stated for arsenic trioxide); cited from earlier work

## COc1cccc2c1C(=O)c1c(O)c3c(c(O)c1C2=O)C[C@@](O)(C(=O)CO)C[C@@H]3O[C@H]1C[C@H](N)[C@H](O)[C@H](C)O1 [DOX, doxorubicin]
HL-60 leukemia cells
  inhibition at 1 µM: 100%

## arsenic trioxide
mice
  LD50 (a dose at which 50% of animals die due to acute toxicity): 10 mg/kg

Reference: patent US8222440B2, “Compounds and methods for the treatment of cancer” (The Texas A&M University System, priority 2006, dated 2012)
